Measurements published in PubChem BioAssay (NCI).
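Test compounds were applied to cells in 96-well plates for 48 hours at 5 doses. TGI is the concentration that stops growth completely.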

Columns and labels:
Experiment in all cases: DTP human tumour cell line panel, 48 h
786-0 renal = test system: 786-0 renal
CAKI-1 renal = test system: CAKI-1 renal
HOP-92 NSCLC = test system: HOP-92 NSCLC
LOX IMVI melanoma = test system: LOX IMVI melanoma
M14 melanoma = test system: M14 melanoma
MOLT-4 leukemia = test system: MOLT-4 leukemia
OVCAR-8 ovarian = test system: OVCAR-8 ovarian
SF-295 CNS = test system: SF-295 CNS
MCF7 breast = test system: MCF7 breast
PC-3 prostate = test system: PC-3 prostate

Row | SMILES | TGI (786-0 renal) | TGI (CAKI-1 renal) | TGI (HOP-92 NSCLC) | TGI (LOX IMVI melanoma) | TGI (M14 melanoma) | TGI (MOLT-4 leukemia) | TGI (OVCAR-8 ovarian) | TGI (SF-295 CNS) | TGI (MCF7 breast) | TGI (PC-3 prostate)
1 | CCCC(=O)OCC(O)CO (stereo not drawn) | > 5000 µM | > 5000 µM | > 5000 µM | > 5000 µM | > 5000 µM | > 5000 µM | > 5000 µM | > 5000 µM | – | –
2 | C[C@H](O)C(=O)SC[C@H](NC(=O)CC[C@@H](N)C(=O)O)C(=O)NCC(=O)O | – | > 100 µM | > 100 µM | > 100 µM | > 100 µM | > 100 µM | > 100 µM | > 100 µM | – | –
3 | Cc1ccc(S(=O)(=O)NCCSS(=O)(=O)c2ccc(C)cc2)cc1 | – | – | > 100 µM | 53.5 µM | – | > 100 µM | > 100 µM | > 100 µM | 41 µM | 94.8 µM
4 | Oc1ccc2ccccc2c1Cc1c(O)ccc2ccccc12 | 41.7 µM | 33.9 µM | – | 38.7 µM | 34.9 µM | 36.9 µM | 36.9 µM | 37.1 µM | 53.9 µM | 35.1 µM
5 | O=C(/N=C/c1c(O)c2ccccc2oc1=O)NC1CCCCC1 | – | – | > 100 µM | > 100 µM | > 100 µM | > 100 µM | > 100 µM | – | – | –
6 | COc1c2ccoc2c(S(=O)(=O)Nc2ccc(Cl)cc2)c2oc(C)cc(=O)c12 | – | > 95.9 µM | > 93.6 µM | > 100 µM | – | > 100 µM | > 100 µM | > 100 µM | > 100 µM | –
7 | Cc1cc(-c2nc3cc(F)ccc3s2)ccc1NC(=O)C(C)N (stereo not drawn) | 7.2 µM | 8.64 µM | 9.41 µM | 10.1 µM | 9.74 µM | 8.42 µM | 8.62 µM | 7.94 µM | 2.7 µM | 8.71 µM
8 | CN(C)CCC(C(=O)C(C)(C)C)c1ccccn1 (stereo not drawn) | > 100 µM | > 100 µM | > 100 µM | > 100 µM | > 100 µM | – | > 100 µM | > 100 µM | > 100 µM | > 100 µM
9 | CC(O)=NC(Cc1ccc2ccccc2c1)C(O)=NC(Cc1ccc(Cl)cc1)C(O)=NC(Cc1c[nH]c2ccccc12)C(O)=NC(CO)C(O)=NC(Cc1ccc(O)cc1)C(O)=NC(CCCN=C(N)N)C(O)=NC(CC(C)C)C(O)=NC(CCCN=C(N)N)C(=O)N1CCCC1C(O)=NC(C)C(=N)O (stereo not drawn) | > 100 µM | > 100 µM | > 100 µM | – | > 100 µM | > 100 µM | > 100 µM | > 100 µM | > 100 µM | > 100 µM
10 | CCCCOc1ccc(S(=O)(=O)/N=C(\NN)Nc2ccc(Cl)cc2)cc1 | 31 µM | 48.1 µM | 67.2 µM | 35.6 µM | 56.9 µM | > 100 µM | 36.2 µM | 67.7 µM | > 100 µM | 33.1 µM
11 | CO[C@]12C[C@H](CNC(=O)c3cc(Br)c(Br)[nH]3)O[C@H]1NC(=O)N2 | > 100 µM | > 100 µM | > 100 µM | > 100 µM | > 100 µM | > 100 µM | > 100 µM | > 100 µM | > 100 µM | > 100 µM
12 | CCOC(=O)[C@H]1C[C@]23CN(C(=O)OC(C)(C)C)CC[C@H]2CCC2(SCCCS2)[C@@H]3N1C | > 100 µM | > 100 µM | 51 µM | > 100 µM | > 100 µM | > 100 µM | > 100 µM | > 100 µM | > 100 µM | 89.9 µM
13 | NC1=NS(=O)(=O)Nc2nc(-c3cccs3)[nH]c21 | > 100 µM | > 100 µM | > 100 µM | > 100 µM | > 100 µM | > 100 µM | > 100 µM | > 100 µM | – | –
14 | NCCc1ccc2c(c1)C(=O)c1c(O)ccc(O)c1C2=O | 8.59 µM | > 84.3 µM | > 100 µM | > 100 µM | > 100 µM | > 100 µM | 9.19 µM | > 74.9 µM | > 100 µM | 26.1 µM
15 | OC1(c2ccc3ccccc3c2)c2ccc3ccccc3c2C2=NCCN21 (stereo not drawn) | 69.3 µM | > 100 µM | > 100 µM | > 100 µM | > 100 µM | > 100 µM | 82.2 µM | > 100 µM | > 100 µM | > 100 µM
16 | O=C1N[C@@H]2c3c(Br)sc(Br)c3C(=O)[C@@H]2N1 | 6.4 µM | 8.56 µM | 12.5 µM | 4.28 µM | 16.5 µM | 9.08 µM | 10.5 µM | 29.5 µM | 10.1 µM | 10.4 µM
17 | COc1ccc2c(c1)CC[C@@H]1[C@@H]2CC[C@]2(C)[C@@H](O)/C(=C/c3ccncc3)C[C@@H]12 | 31.7 µM | 34.2 µM | 28 µM | – | 30.4 µM | 26.4 µM | 28.2 µM | 29.4 µM | 30.2 µM | 25.5 µM
